Results from patent US20240382471A1, “GLUCAGON-LIKE PEPTIDE-1 RECEPTOR MODULATORS AND USES THEREOF” (HEPAGENE THERAPEUTICS (HK) LIMITED, priority 2021, published 2024).

Target: GLP1R (Homo sapiens, UniProt P43220)
Experiment: GLP1R/CRE-Luc luciferase reporter gene assay (agonist activity)
Assay type: cell-based
Set-up: host or cells: HKE293 (so in the source)
Settings: HKE293-Human GLP1R/CRE-luc cells, 5 h at 37° C., read-out: EC50 (nM) Assay 2
Procedure: GLP1R-mediated agonist activity was determined with a cell-based functional assay utilizing a britelite plus luciferase reporter gene assay system. The stable cell line overexpress GLP1R and target response element. The stimulation with GLP1R agonist results in the upregulation of intracellular cAMP, which regulate the activities of cAMP-response element binding protein (CREB) and CREB-Luc. Reagents and equipment used in the assay are listed below, followed by the protocol.
• 1) Cell Line: HKE293-Human GLP1R/CRE-luc • 2) Complete Medium: DMEM+10% FBS+1×Penicillin-Streptomycin+400 μg/mL G418
• a) Seed HKE293-Human GLP1R/CRE-luc cells at 20,000 cells/well into 384 well assay plate (6007680-50, PE) using complete medium and incubate overnight. • b) Prepare 6×compound working solution with Medium. • c) Add 5 μL 6×compound working solution into cell plate, incubate 5 h at 37° C. • d) Add 20 μl britelite plus Luciferase Assay Reagent into each well of 384-well assay plate. • e) Record the luminescence value on Envision plate reader.
• 3.1% Activity is calculated as follow:
% Activity=(Signalcmpd−SignalAve_VC)/(SignalAve_PC−SignalAve_VC)×100. • 3.2 Calculate EC50 and Plot effect-dose curve of cmpds:
Y=Bottom+(Top−Bottom)/(1+10^((Log EC50−X)*HillSlope)) • X: log of agonist concentration; Y: % Activity.

Chain of GLP1R (P43220 24-463): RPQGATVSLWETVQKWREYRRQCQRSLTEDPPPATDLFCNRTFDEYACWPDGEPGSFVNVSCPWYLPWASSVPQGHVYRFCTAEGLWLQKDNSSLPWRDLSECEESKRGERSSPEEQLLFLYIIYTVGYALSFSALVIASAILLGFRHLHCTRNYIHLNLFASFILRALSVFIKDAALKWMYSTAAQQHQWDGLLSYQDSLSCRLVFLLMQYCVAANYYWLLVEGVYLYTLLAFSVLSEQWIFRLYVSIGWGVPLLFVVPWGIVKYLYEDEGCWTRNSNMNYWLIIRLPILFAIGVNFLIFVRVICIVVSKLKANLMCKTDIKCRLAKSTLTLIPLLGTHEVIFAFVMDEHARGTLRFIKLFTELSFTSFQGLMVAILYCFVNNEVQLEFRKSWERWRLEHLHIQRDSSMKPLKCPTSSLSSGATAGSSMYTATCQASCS

Row | SMILES | EC50
1 | COc1cc(C#N)ccc1COc1cccc(C23CCN(Cc4nc5c(F)cc(C(=O)O)cc5n4C[C@@H]4CCO4)CC2C3)n1 (stereo partly drawn) [Compound 1-23, 2-((6-(6-((4-cyano-2-methoxybenzyl)oxy)pyridin-2-yl)-3-azabicyclo[4.1.0]heptan-3-yl)methyl)-4-fluoro-1-(((S)-oxetan-2-yl)methyl)-1H-benzo[d]imidazole-6-carboxylic acid] | 3.05 nM
2 | COc1cc(C#N)ccc1COc1ccnc(C23CCN(Cc4nc5ccc(C(=O)O)cc5n4C[C@@H]4CCO4)CC2C3)n1 (single isomer, unassigned) [Compound 1-26-A] | 102 nM
3 | COc1cc(C#N)ccc1COc1nc(C23CCN(Cc4nc5c(OC)cc(C(=O)O)cc5n4C[C@@H]4CCO4)CC2C3)ccc1OC (stereo partly drawn) [Compound 1-30, 2-((6-(6-((4-cyano-2-methoxybenzyl)oxy)-5-methoxypyridin-2-yl)-3-azabicyclo[4.1.0]heptan-3-yl)methyl)-4-methoxy-1-(((S)-oxetan-2-yl)methyl)-1H-benzo[d]imidazole-6-carboxylic acid] | 28.1 nM
4 | COc1cc(C(F)(F)F)ccc1COc1cccc(C23CCN(Cc4nc5ccc(C(=O)O)cc5n4C[C@@H]4CCO4)CC2C3)n1 (stereo partly drawn) [Compound 1-14, 2-((6-(6-((2-methoxy-4-(trifluoromethyl)benzyl)oxy)pyridin-2-yl)-3-azabicyclo[4.1.0]heptan-3-yl)methyl)-1-(((S)-oxetan-2-yl)methyl)-1H-benzo[d]imidazole-6-carboxylic acid] | 17.4 nM
5 | COc1cc(C#N)ccc1COc1ccnc(C23CCN(Cc4nc5c(OC)cc(C(=O)O)cc5n4C[C@@H]4CCO4)CC2C3)n1 (stereo partly drawn) [Compound 1-38, 2-((6-(4-((4-cyano-2-methoxybenzyl)oxy)pyrimidin-2-yl)-3-azabicyclo[4.1.0]heptan-3-yl)methyl)-4-methoxy-1-(((S)-oxetan-2-yl)methyl)-1H-benzo[d]imidazole-6-carboxylic acid] | 0.79 nM

Now from value to compound:

Row | EC50 | SMILES
6 | 10.2 nM | C#Cc1ccc(COc2ccnc(C34CCN(Cc5nc6c(OC)cc(C(=O)O)cc6n5C[C@@H]5CCO5)CC3C4)n2)c(OC)c1 (stereo partly drawn) [Compound 1-49, 2-((6-(4-((4-ethynyl-2-methoxybenzyl)oxy)pyrimidin-2-yl)-3-azabicyclo[4.1.0]heptan-3-yl)methyl)-4-methoxy-1-(((S)-oxetan-2-yl)methyl)-1H-benzo[d]imidazole-6-carboxylic acid]
7 | 0.49 nM | COc1cc(C#N)ccc1COc1nc(C23CCN(Cc4nc5c(OC)cc(C(=O)O)cc5n4C[C@@H]4CCO4)CC2C3)ncc1F (stereo partly drawn) [Compound 1-43, 2-((6-(4-((4-cyano-2-methoxybenzyl)oxy)-5-fluoropyrimidin-2-yl)-3-azabicyclo[4.1.0]heptan-3-yl)methyl)-4-methoxy-1-(((S)-oxetan-2-yl)methyl)-1H-benzo[d]imidazole-6-carboxylic acid]
8 | 0.3 nM | CCn1cncc1Cn1c(CN2CCC3(c4cccc(OCc5ccc(C#N)cc5OC)n4)CC3C2)nc2ccc(C(=O)O)cc21 (stereo not shown) [Compound 1-44, 2-((6-(6-((4-cyano-2-methoxybenzyl)oxy)pyridin-2-yl)-3-azabicyclo[4.1.0]heptan-3-yl)methyl)-1-((1-ethyl-1H-imidazol-5-yl)methyl)-1H-benzo[d]imidazole-6-carboxylic acid]
9 | 0.16 nM | CCn1cncc1Cn1c(CN2CCC3(c4nccc(OCc5ccc(C#N)cc5OC)n4)CC3C2)nc2c(OC)cc(C(=O)O)cc21 (stereo not shown) [Compound 1-45, 2-((6-(4-((4-cyano-2-methoxybenzyl)oxy)pyrimidin-2-yl)-3-azabicyclo[4.1.0]heptan-3-yl)methyl)-1-((1-ethyl-1H-imidazol-5-yl)methyl)-4-methoxy-1H-benzo[d]imidazole-6-carboxylic acid]
10 | 3.85 nM | COc1cc(Cl)ccc1COc1ccnc(C23CCN(Cc4nc5c(OC)cc(C(=O)O)cc5n4C[C@@H]4CCO4)CC2C3)n1 (stereo partly drawn) [Compound 1-47, 2-((6-(4-((4-chloro-2-methoxybenzyl)oxy)pyrimidin-2-yl)-3-azabicyclo[4.1.0]heptan-3-yl)methyl)-4-methoxy-1-(((S)-oxetan-2-yl)methyl)-1H-benzo[d]imidazole-6-carboxylic acid]
